Active and inactive are the calls of the source.
How the values were obtained:
Caspase-6 = Caspase-6 (Homo sapiens, UniProt P55212); experiment: inhibition of CASP6 peptide cleavage – biochemical, VEID-R110 fluorescence, cherry-pick, dose response (AID 720632)
ORF 73 = molecular target: T1, ORF 73 (Human herpesvirus 8, UniProt O40947); experiment: KSHV LANA DNA-binding disruption – biochemical, fluorescence polarization, cherry-picked samples, dose response (AID 504725); design: species or system Human gammaherpesvirus 8;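 note: fluorescence polarization of a labeled DNA duplex reporting LANA DNA binding; potency is for inhibitors that block LANA binding to the DNA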
T1 sequence (O40947 whole entry): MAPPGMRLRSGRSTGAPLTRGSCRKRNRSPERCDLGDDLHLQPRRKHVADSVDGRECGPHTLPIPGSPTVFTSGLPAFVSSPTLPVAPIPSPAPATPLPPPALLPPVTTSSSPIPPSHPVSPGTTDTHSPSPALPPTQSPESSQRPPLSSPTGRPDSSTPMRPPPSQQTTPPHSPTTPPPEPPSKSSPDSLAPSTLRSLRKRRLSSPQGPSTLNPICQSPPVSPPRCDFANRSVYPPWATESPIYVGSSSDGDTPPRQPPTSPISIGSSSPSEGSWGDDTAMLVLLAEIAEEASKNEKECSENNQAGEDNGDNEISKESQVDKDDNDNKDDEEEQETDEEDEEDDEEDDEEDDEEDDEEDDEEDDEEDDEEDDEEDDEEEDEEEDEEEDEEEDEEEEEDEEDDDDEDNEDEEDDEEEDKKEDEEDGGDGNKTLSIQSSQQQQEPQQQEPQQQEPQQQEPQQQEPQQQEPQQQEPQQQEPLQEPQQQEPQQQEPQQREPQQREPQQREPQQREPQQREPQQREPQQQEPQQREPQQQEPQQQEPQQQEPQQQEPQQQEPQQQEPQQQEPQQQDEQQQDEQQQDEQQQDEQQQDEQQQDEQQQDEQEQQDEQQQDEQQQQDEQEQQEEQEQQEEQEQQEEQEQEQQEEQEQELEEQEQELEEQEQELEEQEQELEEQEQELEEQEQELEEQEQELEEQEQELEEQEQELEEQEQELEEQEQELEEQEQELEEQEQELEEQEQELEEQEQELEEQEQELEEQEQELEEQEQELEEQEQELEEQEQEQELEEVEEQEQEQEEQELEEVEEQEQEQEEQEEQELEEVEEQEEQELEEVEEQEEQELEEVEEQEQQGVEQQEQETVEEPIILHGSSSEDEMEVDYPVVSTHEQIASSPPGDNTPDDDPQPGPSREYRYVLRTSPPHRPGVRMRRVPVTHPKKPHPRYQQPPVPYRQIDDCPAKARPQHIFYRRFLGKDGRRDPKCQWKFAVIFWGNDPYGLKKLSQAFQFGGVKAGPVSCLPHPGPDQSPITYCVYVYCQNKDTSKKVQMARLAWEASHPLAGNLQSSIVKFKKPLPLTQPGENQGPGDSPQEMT

HeLa = experiment: viability loss in HeLa cells – cell-based, 24 h, cherry-picked samples, cytotoxicity control, dose response (AID 504726); format: functional; conditions: Homo sapiens;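 note: potency for cytotoxicity as loss of luminescence signal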
Genome polyprotein = Genome polyprotein (dengue virus type 2, UniProt P29990); experiment: flavivirus cap methylation enzyme inhibition – biochemical, confirmation dose response, primary screen (AID 588689); format: functional
[1] = molecular target: T2, Carboxy-terminal domain RNA polymerase II polypeptide A small phosphatase 1 (Homo sapiens, UniProt Q9GZU7); experiment: CTDSP1 inhibitors, concentration-response, biochemical, absorbance readout, ultra-high-throughput screen actives (AID 540297); format: functional
T2 sequence (Q9GZU7 whole entry): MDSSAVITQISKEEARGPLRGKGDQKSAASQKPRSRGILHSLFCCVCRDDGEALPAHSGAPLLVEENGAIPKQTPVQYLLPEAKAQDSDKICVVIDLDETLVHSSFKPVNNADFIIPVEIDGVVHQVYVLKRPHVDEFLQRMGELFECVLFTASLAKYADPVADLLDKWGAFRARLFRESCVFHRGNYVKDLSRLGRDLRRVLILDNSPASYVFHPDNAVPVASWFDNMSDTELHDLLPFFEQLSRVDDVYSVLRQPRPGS

Nonstructural protein 1 = Nonstructural protein 1 (Influenza A virus, UniProt Q194T2); format: functional, Influenza A virus (A/California/07/2009(H1N1))
[2] = molecular target: Melanin-concentrating hormone receptor 1 (Homo sapiens, UniProt Q99705); experiment: Late-stage fluorescence-based counterscreen for antagonists of the G-protein coupled receptor 7 (GPR7): cell-based dose response assay to identify antagonists of the melanin-concentrating hormone receptor 1 (MCHR1). [Related pubchem assays (depositor defined):AID1861, AID1880, AID1952, AID2148, AID2251, AID2257, AID485339]; format: functional;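 note: stimulated with 30 nM MCH peptide agonist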
[3] = molecular target: C-C chemokine receptor type 6 (Homo sapiens, UniProt P51684); experiment: antagonism of CCR6 beta-arrestin recruitment – cell-based, luminescent beta-arrestin readout, dose response (AID 504728); format: functional
[4] = molecular target: Glucose-6-phosphate 1-dehydrogenase (Homo sapiens, UniProt P11413); experiment: inhibition of Homo sapiens G6PD, dose series – biochemical, fluorescence, selectivity assay for P. falciparum G6PD inhibitor project, dose response (AID 504792); format: functional
Vero = experiment: cells; format: functional; conditions: Chlorocebus sabaeus
Beta-galactosidase = Beta-galactosidase (Escherichia coli, UniProt Q8VNN2); experiment: detection-enzyme interference by beta-gal modulators – biochemical, E. coli enzyme, set 3, artefact control for CCR6 antagonist project, dose response (AID 504712); format: functional
[5] = blockers of HIV-1 ZM109 envelope-driven cell-cell fusion – HeLa effector, CEM target cells, luciferase, cherry-pick, dose response (AID 652058); format: functional, cell-based;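 note: luciferase signal from HIV-1 Env mediated cell-cell fusion of effector and target cells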
[6] = off-target signal loss in HeLa-CEM21 co-culture – HeLa F-luc CTL cells, cherry-picked, counter-screen for HIV-1 Env fusion inhibitor project, dose response (AID 652040); format: functional, cell-based;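 note: potency for signal decrease marking cytotoxic or nonspecific inhibition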
[7] = HEK-293T cell viability reduction – luminescence, B-cell screen hits, cytotoxicity control for BCR NF-kB inhibitor project, dose response (AID 489021); format: functional, cell-based;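 note: HEK-293T cells carrying an NF-kB luciferase reporter; cells exposed to compound for about 14 hours before viability readout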
[8] = alpha-synuclein stem-loop luciferase translation blockers – H4 neuroglioma cells, luminescence, confirmation (AID 1988); format: functional, cell-based
[9] = HIV-1 AD8 envelope cell-cell fusion blockers – cherry-pick, dose response (AID 652062); format: functional, cell-based;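 note: luciferase signal from cell-cell fusion driven by HIV-1 clade B AD8 Env; potency is for inhibitors of fusion seen as a drop in luminescence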
[10] = Luminescence Cell-Based Dose Response HTS to Identify Inhibitors of 5'UTR Stem-Loop Driven Prion Protein mRNA Translation in H4 Neuroglioblastoma Cells. [Related pubchem assays: 1827 (Project Summary), 1813 (Primary HTS)]; format: functional
[11] = blockers of HIV-1 envelope-mediated cell-cell fusion – cherry-pick, dose response (AID 652057); format: functional, cell-based
Trypsin = Trypsin (Sus scrofa, UniProt P00761); experiment: trypsin protease activity blockade – biochemical, quenched peptide fluorescence, cherry-pick, selectivity assay for Rce1 protease inhibitor project, dose response (AID 488789)
CAAX prenyl protease 2 = molecular target: T3, CAAX prenyl protease 2 (Saccharomyces cerevisiae S288c, UniProt Q03530); format: biochemical
T3 sequence (Q03530 whole entry): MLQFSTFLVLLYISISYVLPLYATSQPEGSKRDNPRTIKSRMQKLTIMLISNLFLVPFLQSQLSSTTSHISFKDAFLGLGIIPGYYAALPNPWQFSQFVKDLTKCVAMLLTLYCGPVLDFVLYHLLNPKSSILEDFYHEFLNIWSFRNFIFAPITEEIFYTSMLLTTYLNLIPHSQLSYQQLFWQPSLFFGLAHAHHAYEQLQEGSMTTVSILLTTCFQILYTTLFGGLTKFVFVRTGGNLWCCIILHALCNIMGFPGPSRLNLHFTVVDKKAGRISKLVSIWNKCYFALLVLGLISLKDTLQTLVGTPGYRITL

INS1 = experiment: INS-1E survival protection against cytokine death – cell-based, luminescence, retest, dose response (AID 449756); format: functional; conditions: Rattus norvegicus;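 note: cell death triggered by IL-1 beta plus TNF-alpha plus IFN-gamma mixture; protective hits raise ATP signal compared with cytokine alone wells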

Glucose-6-phosphate 1-dehydrogenase, sequence (P11413 whole entry): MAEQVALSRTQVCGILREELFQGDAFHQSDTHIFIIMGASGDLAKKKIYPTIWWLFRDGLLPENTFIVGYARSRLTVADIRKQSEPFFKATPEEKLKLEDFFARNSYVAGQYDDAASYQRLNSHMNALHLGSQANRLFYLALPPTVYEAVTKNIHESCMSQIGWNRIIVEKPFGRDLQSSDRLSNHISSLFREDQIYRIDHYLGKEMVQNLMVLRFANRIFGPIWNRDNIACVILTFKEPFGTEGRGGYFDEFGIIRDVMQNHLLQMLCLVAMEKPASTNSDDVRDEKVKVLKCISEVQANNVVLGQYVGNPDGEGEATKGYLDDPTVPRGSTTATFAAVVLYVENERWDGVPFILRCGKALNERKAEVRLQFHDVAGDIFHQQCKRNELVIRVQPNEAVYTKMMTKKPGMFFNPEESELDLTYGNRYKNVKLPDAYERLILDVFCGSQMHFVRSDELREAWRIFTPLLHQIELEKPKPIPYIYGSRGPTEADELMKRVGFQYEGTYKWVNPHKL
Nonstructural protein 1, sequence (Q194T2 whole entry): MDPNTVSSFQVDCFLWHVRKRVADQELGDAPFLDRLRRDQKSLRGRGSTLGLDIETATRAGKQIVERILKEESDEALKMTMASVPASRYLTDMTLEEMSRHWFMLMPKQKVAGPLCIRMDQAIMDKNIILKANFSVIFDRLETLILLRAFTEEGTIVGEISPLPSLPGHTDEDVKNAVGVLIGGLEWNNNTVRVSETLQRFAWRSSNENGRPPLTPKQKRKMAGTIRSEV
Beta-galactosidase, sequence (Q8VNN2 whole entry, the tested form may be a part): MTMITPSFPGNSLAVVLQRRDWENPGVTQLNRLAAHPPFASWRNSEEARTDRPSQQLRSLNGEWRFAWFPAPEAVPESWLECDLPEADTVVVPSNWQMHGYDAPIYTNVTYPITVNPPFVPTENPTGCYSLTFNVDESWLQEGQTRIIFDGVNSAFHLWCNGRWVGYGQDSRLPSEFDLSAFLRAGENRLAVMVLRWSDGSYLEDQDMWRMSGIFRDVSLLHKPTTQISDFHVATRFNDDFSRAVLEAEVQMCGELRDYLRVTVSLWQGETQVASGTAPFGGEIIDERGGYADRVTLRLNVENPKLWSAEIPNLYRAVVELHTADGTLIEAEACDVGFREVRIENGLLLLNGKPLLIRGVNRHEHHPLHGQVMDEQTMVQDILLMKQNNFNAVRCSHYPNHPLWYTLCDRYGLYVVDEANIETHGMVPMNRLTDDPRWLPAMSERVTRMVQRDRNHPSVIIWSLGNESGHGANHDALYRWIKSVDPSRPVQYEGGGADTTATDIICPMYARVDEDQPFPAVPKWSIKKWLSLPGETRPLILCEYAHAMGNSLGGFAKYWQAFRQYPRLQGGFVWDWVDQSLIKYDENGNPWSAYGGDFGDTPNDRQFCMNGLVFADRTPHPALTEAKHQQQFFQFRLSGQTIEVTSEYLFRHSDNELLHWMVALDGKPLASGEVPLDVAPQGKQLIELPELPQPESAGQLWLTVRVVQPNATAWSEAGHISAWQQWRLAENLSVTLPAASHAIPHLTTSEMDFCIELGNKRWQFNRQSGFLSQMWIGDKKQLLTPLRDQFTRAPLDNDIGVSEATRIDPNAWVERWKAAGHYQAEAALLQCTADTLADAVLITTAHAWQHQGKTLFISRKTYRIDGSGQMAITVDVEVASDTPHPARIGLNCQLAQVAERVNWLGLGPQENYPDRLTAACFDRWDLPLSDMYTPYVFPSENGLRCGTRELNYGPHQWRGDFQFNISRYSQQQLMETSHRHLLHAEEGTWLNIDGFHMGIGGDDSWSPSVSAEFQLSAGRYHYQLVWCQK
Genome polyprotein, sequence (P29990 2492-3391 limits assumed): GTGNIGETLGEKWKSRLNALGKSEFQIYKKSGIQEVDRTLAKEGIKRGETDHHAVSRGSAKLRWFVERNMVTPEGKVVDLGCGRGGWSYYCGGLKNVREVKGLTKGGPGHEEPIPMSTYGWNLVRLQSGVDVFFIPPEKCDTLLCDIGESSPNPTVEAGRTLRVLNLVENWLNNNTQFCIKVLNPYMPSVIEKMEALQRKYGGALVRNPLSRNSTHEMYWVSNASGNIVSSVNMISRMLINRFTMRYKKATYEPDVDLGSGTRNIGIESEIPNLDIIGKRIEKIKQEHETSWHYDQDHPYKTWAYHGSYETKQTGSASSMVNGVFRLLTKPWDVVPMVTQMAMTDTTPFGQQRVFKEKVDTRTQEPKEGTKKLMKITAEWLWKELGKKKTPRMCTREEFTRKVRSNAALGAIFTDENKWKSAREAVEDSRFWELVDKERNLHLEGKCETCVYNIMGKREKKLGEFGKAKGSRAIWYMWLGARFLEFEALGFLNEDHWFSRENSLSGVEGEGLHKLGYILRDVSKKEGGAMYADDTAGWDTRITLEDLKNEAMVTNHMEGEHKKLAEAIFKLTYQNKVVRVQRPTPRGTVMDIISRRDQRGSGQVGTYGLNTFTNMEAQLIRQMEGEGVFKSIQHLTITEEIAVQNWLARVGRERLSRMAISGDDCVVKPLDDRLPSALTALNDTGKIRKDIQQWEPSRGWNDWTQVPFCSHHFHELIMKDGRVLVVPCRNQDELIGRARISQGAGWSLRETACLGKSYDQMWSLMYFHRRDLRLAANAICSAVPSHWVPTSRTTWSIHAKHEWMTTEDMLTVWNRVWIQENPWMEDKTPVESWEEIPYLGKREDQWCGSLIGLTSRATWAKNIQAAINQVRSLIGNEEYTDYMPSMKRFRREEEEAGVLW
Melanin-concentrating hormone receptor 1, sequence (Q99705 whole entry): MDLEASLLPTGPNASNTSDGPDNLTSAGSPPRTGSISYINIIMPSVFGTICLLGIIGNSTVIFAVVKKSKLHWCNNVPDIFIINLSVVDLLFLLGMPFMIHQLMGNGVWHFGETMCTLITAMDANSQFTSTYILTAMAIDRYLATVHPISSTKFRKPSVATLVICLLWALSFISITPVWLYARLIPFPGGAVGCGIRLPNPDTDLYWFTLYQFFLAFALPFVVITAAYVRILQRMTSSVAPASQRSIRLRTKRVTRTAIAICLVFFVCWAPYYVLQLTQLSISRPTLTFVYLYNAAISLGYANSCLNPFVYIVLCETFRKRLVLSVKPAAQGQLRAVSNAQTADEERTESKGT
Caspase-6, sequence (P55212 24-179 limits assumed): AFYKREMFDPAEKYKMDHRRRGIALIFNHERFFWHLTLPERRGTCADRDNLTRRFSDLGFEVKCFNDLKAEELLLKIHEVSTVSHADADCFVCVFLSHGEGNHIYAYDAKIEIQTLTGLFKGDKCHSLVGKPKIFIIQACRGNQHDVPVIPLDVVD
Caspase-6, sequence (P55212 194-293 limits assumed): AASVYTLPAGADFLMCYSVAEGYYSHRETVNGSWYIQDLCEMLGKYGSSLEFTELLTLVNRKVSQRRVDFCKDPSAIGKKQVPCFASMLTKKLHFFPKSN
C-C chemokine receptor type 6, sequence (P51684 whole entry): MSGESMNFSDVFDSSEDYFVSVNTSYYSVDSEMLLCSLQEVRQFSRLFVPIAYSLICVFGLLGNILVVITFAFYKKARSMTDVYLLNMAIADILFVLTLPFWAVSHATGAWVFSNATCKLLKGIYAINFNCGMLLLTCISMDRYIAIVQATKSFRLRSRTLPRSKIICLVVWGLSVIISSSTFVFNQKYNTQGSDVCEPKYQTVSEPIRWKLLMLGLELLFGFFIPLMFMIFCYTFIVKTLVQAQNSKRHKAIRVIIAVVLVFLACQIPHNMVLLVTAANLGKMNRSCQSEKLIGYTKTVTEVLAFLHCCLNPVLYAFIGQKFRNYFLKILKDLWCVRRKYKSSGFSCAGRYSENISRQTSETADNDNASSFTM
Trypsin, sequence (P00761 whole entry): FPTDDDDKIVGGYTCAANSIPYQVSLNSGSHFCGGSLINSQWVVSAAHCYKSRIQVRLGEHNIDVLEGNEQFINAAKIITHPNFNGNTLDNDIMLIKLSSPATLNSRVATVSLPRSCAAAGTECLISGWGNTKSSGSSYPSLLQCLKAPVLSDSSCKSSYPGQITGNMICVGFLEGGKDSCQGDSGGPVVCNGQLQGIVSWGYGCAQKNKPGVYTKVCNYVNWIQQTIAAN

O=C(O)Cc1ccc(N=Nc2c(O)c(C(=O)O)cc3ccccc23)cc1
AC50 (Caspase-6): 7.16 µM (active) | AC50 (ORF 73): 33.6 µM (active) | AC50 (HeLa): 303 µM (active) | IC50 (Genome polyprotein): 68.1 µM (active) | IC50 [1]: 3.6 µM (active) | IC50 (Nonstructural protein 1): 46 µM (active)

CCOc1ccc(Oc2c(Cl)cnn(-c3ccc(C)cc3)c2=O)cc1
IC50 [2]: 11 µM (inactive)

COC(=O)c1ccccc1/N=C1\C=C(NS(=O)(=O)c2cccs2)c2ccccc2C1=O
IC50 [3]: > 66.6 µM (inactive) | IC50 [4]: > 80 µM (inactive) | IC50 (Nonstructural protein 1): 4.03 µM (active) | CC50 (Vero): 13.6 µM (active) | IC50 (Beta-galactosidase): > 66.6 µM (inactive)

OCCN1CCN(C(=S)c2ccc(-c3ccccc3)cc2)CC1
AC50 [5]: 3.74 µM (active) | AC50 [6]: 5.39 µM (active) | IC50 [7]: > 80 µM (inactive) | EC50 [8]: 9.34 µM (active) | AC50 [9]: 1.64 µM (active) | EC50 [10]: 12.1 µM (active) | IC50 [4]: > 80 µM (inactive) | AC50 [11]: 4.04 µM (active)

COc1ccc(-c2c[n+]3c4n2CCCCC4=C(c2ccc(Br)cc2)C3)cc1
AC50 (Trypsin): 3.58 µM (active) | AC50 (CAAX prenyl protease 2): 1.87 µM (active) | AC50 (INS1): 2.88 µM (active)
